Test results as given in PubChem BioAssay AID1963967 (Molecular Pharmacology Branch, DTP, NCI, 2024).
pIC50: −log10 of the molar value.

System: 855422-203-R-J1-PDC spheroids with HUVEC/MSC, viability
Test: Anticancer human tumor 855422-203-R-J1-PDC patient-derived bladder carcinoma cell line growth inhibition [PI3K]
Details: for pIC50: curve of first compound; for viability, T/C: stronger effect = lower value
Description: Combinatorial screen of targeted agents with the PI3K inhibitors inavolisib, alpelisib, duvelisib, and copanlisib in multi-cell type tumor spheroids
A high-throughput screen of multi-cell type tumor spheroids was designed to identify active combinations of targeted small molecules and PI3K pathway inhibitors. Complex spheroids include a stromal component modeled by human endothelial cells (HUVEC) and fibroblasts modeled by human mesenchymal stem cells (MSCs). The concentration ranges selected for each drug and investigational agent were based upon clinically achievable concentrations if the clinical Cmax of the agent was known.
Compounds. The drugs and investigational agents: inavolisib (NSC800729), alpelisib (NSC765974), duvelisib (NSC772469), copanlisib (NSC816437), ipatasertib (NSC767898), afuresertib (NSC778305), talazoparib (NSC767125), sapanisertib (NSC764658), selumetinib (NSC741078), tovorafenib (DAY101, NSC766906), vemurafenib (NSC761431), ravoxertinib (NSC781343), sotorasib (NSC818433), MRTX1133 (NSC 836407), abemaciclib (NSC 768073), palbociclib (NSC758247), venetoclax (NSC 766270), SY5609 (NSC837396), enzalutamide (NSC755605), and darolutamide (NSC825331), were obtained from the National Cancer Institute (NCI) Developmental Therapeutics Program Chemical Repository. The FDA-approved anticancer drug set is available from the NCI Developmental Therapeutics Program. […] The stock solutions were prepared in dimethyl sulfoxide (DMSO, Sigma-Aldrich, St. Louis, MO, cat. D2650) at 800-fold the tested concentration and stored at -70 degrees C prior to their use. All drugs and investigational agents were tested over a range starting from a high concentration at or near the clinical Cmax and decreasing in half-log increments. If the clinical Cmax for an agent had not been determined, the highest concentration tested was 10 microM.
Cell Culture. All cells were maintained in an incubator at 37 degrees C and 5% CO2 with 95% humidity. The PDC lines were cultured according to standard operating procedures established by the NCI PDMR (https://pdmr.cancer.gov/sops/default.htm). All PDCs were thawed and cultured in Matrigel-coated flasks prepared with a working solution of 1X Ham's F-12 nutrient mix, without supplementation (Invitrogen, Waltham, MA, cat. 11765054), 100 U/mL penicillin-streptomycin (Invitrogen, cat. 15140122), and 2.5% Matrigel (Corning Inc., Corning, NY, cat. 354248) for the first three passages. The 354836-022-R-J1-PDC, 475296-252-R-J1-PDC, and 997726-040-R-J2-PDC lines were cultured in 6A media, which includes advanced DMEM/F-12 (Thermo Fisher Scientific, cat. 12634028), 10 mM HEPES (Thermo Fisher Scientific, cat. 15630080), 1X GlutaMAX supplement (Thermo Fisher Scientific, cat. 35050061), 0.1 mg/mL primocin (InvivoGen, San Diego, CA, cat. ant-pm-2), 10% defined fetal bovine serum, heat inactivated (HyClone Laboratories Inc., Logan, UT, cat. SH30070.03HI), 50% L-WRN conditioned media (ATCC, cat. CRL-3276), 1.25 mM N-Acetyl-L-cysteine (Sigma-Aldrich, cat. A9165), 10 mM nicotinamide (Sigma-Aldrich, cat. N0636), 1X B-27 supplement (Thermo Fisher Scientific, cat. 17504044), 1X N-2 supplement (Thermo Fisher Scientific, cat. 17502048), and 10 microM Y-27632 dihydrochloride (Tocris Bioscience, Bristol, United Kingdom, cat. 1254). The 624824-186-R-J2-PDC line was cultured in 6C/Colon 1B media, which includes all 6A media components plus 50 ng/mL human EGF recombinant protein (Thermo Fisher Scientific, cat. PHG0311). […]

[1] = second compound 0.0316 µM, first compound 0.0316 µM
[2] = second compound 0.0316 µM, first compound 0.1 µM
[3] = second compound 0.1 µM, first compound 0.0316 µM
[4] = second compound 0.1 µM, first compound 0.1 µM
[5] = second compound 0.316 µM, first compound 0.0316 µM
[6] = second compound 0.316 µM, first compound 0.1 µM
[7] = second compound 1 µM, first compound 0.0316 µM
[8] = second compound 1 µM, first compound 0.1 µM
[9] = second compound 3.16 µM, first compound 0.0316 µM
[10] = second compound 3.16 µM, first compound 0.1 µM
[11] = second compound 10 µM, first compound 0.0316 µM
[12] = second compound 10 µM, first compound 0.1 µM
[13] = second compound 0.0316 µM, first compound 0.000316 µM
[14] = second compound 0.0316 µM, first compound 0.001 µM
[15] = second compound 0.0316 µM, first compound 0.00316 µM
[16] = second compound 0.0316 µM, first compound 0.01 µM
[17] = second compound 0.1 µM, first compound 0.000316 µM
[18] = second compound 0.1 µM, first compound 0.001 µM
[19] = second compound 0.1 µM, first compound 0.00316 µM
[20] = second compound 0.1 µM, first compound 0.01 µM
[21] = second compound 0.316 µM, first compound 0.000316 µM
[22] = second compound 0.316 µM, first compound 0.001 µM
[23] = second compound 0.316 µM, first compound 0.00316 µM
[24] = second compound 0.316 µM, first compound 0.01 µM
[25] = second compound 1 µM, first compound 0.000316 µM
[26] = second compound 1 µM, first compound 0.001 µM
[27] = second compound 1 µM, first compound 0.00316 µM
[28] = second compound 1 µM, first compound 0.01 µM
[29] = second compound 3.16 µM, first compound 0.000316 µM
[30] = second compound 3.16 µM, first compound 0.001 µM
[31] = second compound 3.16 µM, first compound 0.00316 µM
[32] = second compound 3.16 µM, first compound 0.01 µM
[33] = second compound 10 µM, first compound 0.000316 µM
[34] = second compound 10 µM, first compound 0.001 µM
[35] = second compound 10 µM, first compound 0.00316 µM
[36] = second compound 10 µM, first compound 0.01 µM
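Further: agents incubated with spheroids for one week before read-out.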
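Wherever viability, T/C is given: 100% = DMSO vehicle-treated control wells.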

Cn1ncc(Cl)c1-c1cc(C(=O)NC(CN)Cc2cccc(F)c2)sc1Cl (stereo unspecified) + CC(Nc1ncnc2nc[nH]c12)c1cc2cccc(Cl)c2c(=O)n1-c1ccccc1
pIC50 (second compound 0.0316 µM): 6.24 | pIC50 (second compound 0.1 µM): 6.15 | pIC50 (second compound 0.316 µM): 6.20 | pIC50 (second compound 1 µM): 6.16 | pIC50 (second compound 3.16 µM): 6.34 | pIC50 (second compound 10 µM): 6.39 | viability, T/C [1]: 98.1% | viability, T/C [2]: 78.2% | viability, T/C (second compound 0.0316 µM, first compound 0.316 µM): 58% | viability, T/C (second compound 0.0316 µM, first compound 1 µM): 41.9% | viability, T/C (second compound 0.0316 µM, first compound 3.16 µM): 25.4% | viability, T/C (second compound 0.0316 µM, first compound 10 µM): 9.19% | viability, T/C [3]: 95.2% | viability, T/C [4]: 84.5% | viability, T/C (second compound 0.1 µM, first compound 0.316 µM): 59.3% | viability, T/C (second compound 0.1 µM, first compound 1 µM): 46.4% | viability, T/C (second compound 0.1 µM, first compound 3.16 µM): 25.1% | viability, T/C (second compound 0.1 µM, first compound 10 µM): 8.79% | viability, T/C [5]: 92.2% | viability, T/C [6]: 74.7% | viability, T/C (second compound 0.316 µM, first compound 0.316 µM): 55.5% | viability, T/C (second compound 0.316 µM, first compound 1 µM): 48.3% | viability, T/C (second compound 0.316 µM, first compound 3.16 µM): 25.9% | viability, T/C (second compound 0.316 µM, first compound 10 µM): 6.18% | viability, T/C [7]: 79.8% | viability, T/C [8]: 75.4% | viability, T/C (second compound 1 µM, first compound 0.316 µM): 62.1% | viability, T/C (second compound 1 µM, first compound 1 µM): 45% | viability, T/C (second compound 1 µM, first compound 3.16 µM): 22.5% | viability, T/C (second compound 1 µM, first compound 10 µM): 10% | viability, T/C [9]: 87.5% | viability, T/C [10]: 75.3% | viability, T/C (second compound 3.16 µM, first compound 0.316 µM): 52.4% | viability, T/C (second compound 3.16 µM, first compound 1 µM): 39.5% | viability, T/C (second compound 3.16 µM, first compound 3.16 µM): 21.9% | viability, T/C (second compound 3.16 µM, first compound 10 µM): 8.05% | viability, T/C [11]: 83.4% | viability, T/C [12]: 71.8% | viability, T/C (second compound 10 µM, first compound 0.316 µM): 52.5% | viability, T/C (second compound 10 µM, first compound 1 µM): 36.9% | viability, T/C (second compound 10 µM, first compound 3.16 µM): 20.1% | viability, T/C (second compound 10 µM, first compound 10 µM): 5.58%

Cn1ncnc1[C@H]1c2n[nH]c(=O)c3cc(F)cc(c23)N[C@@H]1c1ccc(F)cc1 + CC(Nc1ncnc2nc[nH]c12)c1cc2cccc(Cl)c2c(=O)n1-c1ccccc1
pIC50 (second compound 0.0316 µM): < 7.00 | pIC50 (second compound 0.1 µM): < 7.00 | pIC50 (second compound 0.316 µM): < 7.00 | pIC50 (second compound 1 µM): < 7.00 | pIC50 (second compound 3.16 µM): < 7.00 | pIC50 (second compound 10 µM): < 7.00 | viability, T/C [13]: 107% | viability, T/C [14]: 98% | viability, T/C [15]: 106% | viability, T/C [16]: 97.8% | viability, T/C [1]: 109% | viability, T/C [2]: 100% | viability, T/C [17]: 121% | viability, T/C [18]: 104% | viability, T/C [19]: 113% | viability, T/C [20]: 101% | viability, T/C [3]: 111% | viability, T/C [4]: 104% | viability, T/C [21]: 106% | viability, T/C [22]: 107% | viability, T/C [23]: 121% | viability, T/C [24]: 102% | viability, T/C [5]: 110% | viability, T/C [6]: 107% | viability, T/C [25]: 106% | viability, T/C [26]: 107% | viability, T/C [27]: 110% | viability, T/C [28]: 104% | viability, T/C [7]: 104% | viability, T/C [8]: 104% | viability, T/C [29]: 96.6% | viability, T/C [30]: 92% | viability, T/C [31]: 97.9% | viability, T/C [32]: 105% | viability, T/C [9]: 105% | viability, T/C [10]: 104% | viability, T/C [33]: 88.3% | viability, T/C [34]: 85% | viability, T/C [35]: 78.4% | viability, T/C [36]: 87% | viability, T/C [11]: 89.5% | viability, T/C [12]: 82.3%

CC(C)n1nc(-c2ccc3oc(N)nc3c2)c2c(N)ncnc21 + Cc1nc(NC(=O)N2CCCC2C(N)=O)sc1-c1ccnc(C(C)(C)C(F)(F)F)c1
pIC50 (second compound 0.0316 µM): 7.31 | pIC50 (second compound 0.1 µM): 7.37 | pIC50 (second compound 0.316 µM): 7.48 | pIC50 (second compound 1 µM): 7.95 | pIC50 (second compound 3.16 µM): > 9.50 | pIC50 (second compound 10 µM): > 9.50 | viability, T/C [13]: 85.8% | viability, T/C [14]: 86.9% | viability, T/C [15]: 106% | viability, T/C [16]: 87.6% | viability, T/C [1]: 70.7% | viability, T/C [2]: 17.8% | viability, T/C [17]: 105% | viability, T/C [18]: 88.5% | viability, T/C [19]: 97.2% | viability, T/C [20]: 82.8% | viability, T/C [3]: 63.6% | viability, T/C [4]: 14.7% | viability, T/C [21]: 68.4% | viability, T/C [22]: 87.6% | viability, T/C [23]: 87.4% | viability, T/C [24]: 75.1% | viability, T/C [5]: 51.8% | viability, T/C [6]: 12.3% | viability, T/C [25]: 67.5% | viability, T/C [26]: 66.9% | viability, T/C [27]: 55.9% | viability, T/C [28]: 51.4% | viability, T/C [7]: 37.8% | viability, T/C [8]: 8.4% | viability, T/C [29]: 42.5% | viability, T/C [30]: 44.7% | viability, T/C [31]: 35.8% | viability, T/C [32]: 34.1% | viability, T/C [9]: 20.5% | viability, T/C [10]: 5.68% | viability, T/C [33]: 22.9% | viability, T/C [34]: 19.3% | viability, T/C [35]: 20.3% | viability, T/C [36]: 16.2% | viability, T/C [11]: 11.9% | viability, T/C [12]: 3.12%
